{"source": "patent US8778871B2", "about": "(Takeda Pharmaceutical Company Limited, priority 2004, dated 2014)", "note": "Non-standard residues stand in square brackets, D forms with d. Residues, ends and D or L forms follow the SMILES beside them. No end group written: not given here. *: point of attachment. 2Nal = N[C@@H](Cc1ccc2ccccc2c1)C(=O)O; Arg(Me) = CNC(=N)NCCC[C@H](N)C(=O)O; Fmoc = O=C(OCC1c2ccccc2-c2ccccc21)*; 4Pal = N[C@@H](Cc1ccncc1)C(=O)O; Cha = N[C@@H](CC1CCCCC1)C(=O)O; Abu = CC[C@H](N)C(=O)O; azaGly = NNC(=O)O", "data": [{"target": "T1, hOT7T175 (Homo sapiens, UniProt Q969F8, L364H)", "T1 construct": "expressed in transfected cells", "T1 sequence (Q969F8 whole entry L364H)": "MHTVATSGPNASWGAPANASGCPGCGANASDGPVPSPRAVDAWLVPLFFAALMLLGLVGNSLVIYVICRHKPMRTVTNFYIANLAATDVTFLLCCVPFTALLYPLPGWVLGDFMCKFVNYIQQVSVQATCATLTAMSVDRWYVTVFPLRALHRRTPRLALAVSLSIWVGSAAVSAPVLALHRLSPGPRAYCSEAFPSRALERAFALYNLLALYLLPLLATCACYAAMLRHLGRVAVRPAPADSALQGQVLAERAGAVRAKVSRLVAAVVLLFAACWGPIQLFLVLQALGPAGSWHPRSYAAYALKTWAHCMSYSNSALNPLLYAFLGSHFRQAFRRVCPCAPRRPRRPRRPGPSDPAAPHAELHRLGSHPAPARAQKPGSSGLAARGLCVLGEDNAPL", "assay": "Intracellular Ca ion level-increasing activity using FLIPR (180 seconds; specific activity to Metastin (1-54))", "assay_type": "cell-based", "conditions": "hOT7T175/CHO, relative to Metastin (1-54) = 1", "values": [{"molecule": "CC(C)C[C@H](NC(=O)CNC(=O)[C@H](Cc1ccccc1)NC(=O)[C@H](CO)NC(=O)[C@H](CC(N)=O)NC(=O)[C@H](Cc1c[nH]c2ccccc12)NC(=O)[C@H](CC(N)=O)NC(=O)[C@@H](N)Cc1ccc(O)cc1)C(=O)N[C@@H](CCCNC(=N)N)C(=O)N[C@@H](Cc1ccccc1)C(N)=O", "note": "[Compound No. 3, reference compound]", "Specific Act. (intracellular Ca ion level-increasing activity, specific activity to Metastin (1-54))": 10}, {"molecule": "CC(C)C[C@H](NC(=O)CNC(=O)[C@H](Cc1ccccc1)NC(=O)[C@H](CO)NC(=O)[C@H](CC(N)=O)NC(=O)[C@H](Cc1c[nH]c2ccccc12)NC(=O)[C@H](CC(N)=O)NC(=O)[C@@H](N)Cc1ccc(O)cc1)C(=O)N[C@@H](CCCNC(=N)N)C(=O)N[C@@H](Cc1ccncc1)C(N)=O", "note": "[Compound No. 17] (H-YNWNSFGLR[4Pal]-NH2)", "Specific Act. (intracellular Ca ion level-increasing activity, specific activity to Metastin (1-54))": 5}, {"molecule": "COc1ccc(C[C@H](NC(=O)[C@H](CCCNC(=N)N)NC(=O)[C@H](CC(C)C)NC(=O)CNC(=O)[C@H](Cc2ccccc2)NC(=O)[C@H](CO)NC(=O)[C@H](CC(N)=O)NC(=O)[C@H](Cc2c[nH]c3ccccc23)NC(=O)[C@H](CC(N)=O)NC(=O)[C@@H](N)Cc2ccc(O)cc2)C(N)=O)cc1", "note": "[Compound No. 18] (H-YNWNSFGLRY(Me)-NH2)", "Specific Act. (intracellular Ca ion level-increasing activity, specific activity to Metastin (1-54))": 1}, {"molecule": "CC(C)C[C@H](NC(=O)CNC(=O)[C@H](Cc1ccccc1)NC(=O)[C@H](CO)NC(=O)[C@H](CC(N)=O)NC(=O)[C@H](Cc1c[nH]c2ccccc12)NC(=O)[C@H](CC(N)=O)NC(=O)[C@@H](N)Cc1ccc(O)cc1)C(=O)N[C@@H](CCCNC(=N)N)C(=O)N[C@@H](Cc1ccccc1F)C(N)=O", "note": "[Compound No. 19]", "Specific Act. (intracellular Ca ion level-increasing activity, specific activity to Metastin (1-54))": 2}, {"molecule": "CC(=O)N[C@@H](Cc1ccc(O)cc1)C(=O)N[C@@H](CC(N)=O)C(=O)N[C@@H](Cc1c[nH]c2ccccc12)C(=O)N[C@@H](CC(N)=O)C(=O)N[C@@H](CO)C(=O)N[C@@H](Cc1ccccc1)C(=O)NCC(=O)N[C@@H](CC(C)C)C(=O)N[C@@H](CCCNC(=N)N)C(=O)N[C@@H](Cc1ccccc1)C(N)=O", "note": "[Compound No. 30]", "Specific Act. (intracellular Ca ion level-increasing activity, specific activity to Metastin (1-54))": 10}, {"molecule": "CC(C)C[C@H](NC(=O)CNC(=O)[C@H](Cc1ccccc1)NC(=O)[C@H](CO)NC(=O)[C@H](CC(N)=O)NC(=O)[C@H](Cc1c[nH]c2ccccc12)NC(=O)[C@H](CC(N)=O)NC(=O)[C@H](Cc1ccc(O)cc1)NC(=O)OCC1c2ccccc2-c2ccccc21)C(=O)N[C@@H](CCCNC(=N)N)C(=O)N[C@@H](Cc1ccccc1)C(N)=O", "note": "[Compound No. 31]", "Specific Act. (intracellular Ca ion level-increasing activity, specific activity to Metastin (1-54))": 2}, {"molecule": "CC(C)C[C@H](NC(=O)CNC(=O)[C@H](Cc1ccccc1)NC(=O)[C@H](CO)NC(=O)[C@H](CC(N)=O)NC(=O)[C@H](Cc1c[nH]c2ccccc12)NC(=O)[C@H](CC(N)=O)NC(=O)[C@H](Cc1ccc(O)cc1)NC(=O)[C@H](CC(N)=O)NC(=O)[C@@H]1CCCN1C(=O)[C@@H](N)CC(C)C)C(=O)N[C@@H](CCCNC(=N)N)C(=O)N[C@@H](Cc1ccccc1)C(N)=O", "note": "[Compound No. 32, reference compound]", "Specific Act. (intracellular Ca ion level-increasing activity, specific activity to Metastin (1-54))": 10}, {"molecule": "CC(C)C[C@H](NC(=O)CNC(=O)[C@H](Cc1ccccc1)NC(=O)[C@H](CO)NC(=O)[C@H](CC(N)=O)NC(=O)[C@H](Cc1c[nH]c2ccccc12)NC(=O)OCC1c2ccccc2-c2ccccc21)C(=O)N[C@@H](CCCNC(=N)N)C(=O)N[C@@H](Cc1ccccc1)C(N)=O", "note": "[Compound No. 54] (Fmoc-WNSFGLRF-NH2)", "Specific Act. (intracellular Ca ion level-increasing activity, specific activity to Metastin (1-54))": 5}, {"molecule": "CC(C)C[C@H](NC(=O)CNC(=O)[C@H](Cc1ccccc1)NC(=O)[C@H](CO)NC(=O)[C@H](CC(N)=O)NC(=O)[C@H](Cc1cn(C=O)c2ccccc12)NC(=O)[C@H](CC(N)=O)NC(=O)[C@@H](N)Cc1ccc(O)cc1)C(=O)N[C@@H](CCCNC(=N)N)C(=O)N[C@@H](Cc1ccc(C#N)cc1)C(N)=O", "note": "[Compound No. 78, Tyr-Asn-Trp(For)-Asn-Ser-Phe-Gly-Leu-Arg-Phe(4CN)-NH2]", "Specific Act. (intracellular Ca ion level-increasing activity, specific activity to Metastin (1-54))": 10}, {"molecule": "CCCC[C@H](NC(=O)CNC(=O)[C@H](Cc1ccccc1)NC(=O)[C@H](CO)NC(=O)[C@H](CC(N)=O)NC(=O)[C@H](Cc1c[nH]c2ccccc12)NC(=O)[C@H](CC(N)=O)NC(=O)[C@@H](N)Cc1ccc(O)cc1)C(=O)N[C@@H](CCCNC(=N)N)C(=O)N[C@@H](Cc1ccccc1)C(N)=O", "note": "[Compound No. 105, Tyr-Asn-Trp-Asn-Ser-Phe-Gly-Nle-Arg-Phe-NH2]", "Specific Act. (intracellular Ca ion level-increasing activity, specific activity to Metastin (1-54))": 1}, {"molecule": "CC(C)C[C@H](NC(=O)CNC(=O)[C@H](Cc1ccccc1)NC(=O)[C@H](CO)NC(=O)[C@H](CC(N)=O)NC(=O)[C@H](Cc1c[nH]c2ccccc12)NC(=O)[C@H](CC(N)=O)NC(=O)[C@@H](N)Cc1ccc(O)cc1)C(=O)N[C@@H](CCCNC(=N)N)C(=O)N[C@@H](Cc1ccc2ccccc2c1)C(N)=O", "note": "[Compound No. 110] (H-YNWNSFGLR[2Nal]-NH2)", "Specific Act. (intracellular Ca ion level-increasing activity, specific activity to Metastin (1-54))": 20}, {"molecule": "CC(C)C[C@H](NC(=O)CNC(=O)[C@H](Cc1ccccc1)NC(=O)[C@H](CO)NC(=O)[C@H](CC(N)=O)NC(=O)[C@H](Cc1c[nH]c2ccccc12)NC(=O)[C@H](CC(N)=O)NC(=O)[C@@H](N)Cc1ccc(O)cc1)C(=O)N[C@@H](CCCNC(=N)N)C(=O)N[C@@H](Cc1c(F)c(F)c(F)c(F)c1F)C(N)=O", "note": "[Compound No. 111]", "Specific Act. (intracellular Ca ion level-increasing activity, specific activity to Metastin (1-54))": 3}, {"molecule": "CC(C)C[C@H](NC(=O)CNC(=O)[C@H](Cc1ccccc1)NC(=O)[C@H](CO)NC(=O)[C@H](CC(N)=O)NC(=O)[C@H](Cc1c[nH]c2ccccc12)NC(=O)[C@H](CC(N)=O)NC(=O)[C@@H](N)Cc1ccc(O)cc1)C(=O)N[C@@H](CCCNC(=N)N)C(=O)N[C@@H](CC1CCCCC1)C(N)=O", "note": "[Compound No. 112] (H-YNWNSFGLR[Cha]-NH2)", "Specific Act. (intracellular Ca ion level-increasing activity, specific activity to Metastin (1-54))": 2}, {"molecule": "CC(C)C[C@H](NC(=O)CNC(=O)[C@H](Cc1ccccc1)NC(=O)[C@H](CO)NC(=O)[C@H](CC(N)=O)NC(=O)[C@H](Cc1c[nH]c2ccccc12)NC(=O)[C@H](CC(N)=O)NC(=O)[C@@H](N)Cc1ccc(O)cc1)C(=O)N[C@@H](CCCNC(=N)N)C(=O)N[C@@H](Cc1ccc(Cl)cc1)C(N)=O", "note": "[Compound No. 130]", "Specific Act. (intracellular Ca ion level-increasing activity, specific activity to Metastin (1-54))": 10}, {"molecule": "CC(C)C[C@H](NC(=O)CNC(=O)[C@H](Cc1ccccc1)NC(=O)[C@H](CO)NC(=O)[C@H](CC(N)=O)NC(=O)[C@H](Cc1c[nH]c2ccccc12)NC(=O)[C@H](CC(N)=O)NC(=O)[C@@H](N)Cc1ccc(O)cc1)C(=O)N[C@@H](CCCNC(=N)N)C(=O)N[C@@H](Cc1ccc(N)cc1)C(N)=O", "note": "[Compound No. 131]", "Specific Act. (intracellular Ca ion level-increasing activity, specific activity to Metastin (1-54))": 3}]}, {"target": "T2, hOT7T175 (Homo sapiens, UniProt Q969F8)", "T2 construct": "expressed in transfected cells", "T2 sequence (Q969F8 whole entry L364H)": "as above", "assay": "Intracellular Ca ion level-increasing activity using FLIPR (180 seconds; specific activity to Metastin (1-54))", "assay_type": "cell-based", "conditions": "hOT7T175/CHO, change in intracellular calcium ion level for 180 seconds, Tables 21-23", "values": [{"molecule": "[dY][dW][Abu]SF[azaGly]L[Arg(Me)]W-NH2 [Compound No. 513]", "intracellular Ca ion level-increasing activity [specific activity to Metastin (1-54)]": 20}]}, {"target": "T1, hOT7T175", "assay": "not given", "assay_type": "cell-based", "conditions": "hOT7T175/CHO, FLIPR, evaluation for 40 seconds after initiation of the reaction", "values": [{"molecule": "[dY][dW][Abu]SF[azaGly]L[Arg(Me)]W-NH2 [Compound No. 513]", "Specific Act. (EC50/MS10 EC50)": 0.4}]}]}
